± gives the expanded uncertainty stated by the source.
Tests used:
[1] = 100 kPa, Liquid; for viscosity: Cone and plate viscometry; for mass density: Vibrating tube method
[2] = wn = mass fraction of the nth substance listed; details: 100 kPa, Liquid; for viscosity: Cone and plate viscometry; for mass density: Vibrating tube method

O [water]
[1]
Details	mass density [kg/m3]	viscosity [mPa·s]
298 K	–	0.89 ± 0.089
310 K	993.35 ± 9.9	0.686 ± 0.069
318 K	–	0.581 ± 0.058

O [water] + CC(CC(C)(C)C)CP(=O)([O-])CC(C)CC(C)(C)C.CCCCCCCCCCCCCC[P+](CCCCCC)(CCCCCC)CCCCCC
[2], w1 = 1
Details	mass density [kg/m3]	viscosity [mPa·s]
298 K	–	0.89 ± 0.089
310 K	993.35 ± 9.9	0.686 ± 0.069
318 K	–	0.581 ± 0.058

CC(CC(C)(C)C)CP(=O)([O-])CC(C)CC(C)(C)C.CCCCCCCCCCCCCC[P+](CCCCCC)(CCCCCC)CCCCCC + O
[2]
Details	mass density, 298 K [kg/m3]	mass density, 310 K [kg/m3]	mass density, 318 K [kg/m3]	viscosity, 298 K [mPa·s]	viscosity, 310 K [mPa·s]	viscosity, 318 K [mPa·s]
w2 = 0.00047	884.09 ± 9.7	876.93 ± 9.6	872.2 ± 9.5	1023 ± 120	521 ± 59	345 ± 38
w2 = 0.00122	884.98 ± 9.7	877.82 ± 9.6	873.07 ± 9.5	996 ± 120	512 ± 58	337 ± 37
w2 = 0.00289	886.11 ± 9.7	878.88 ± 9.6	874.07 ± 9.5	924 ± 110	476 ± 53	313 ± 34
w2 = 0.00582	886.78 ± 9.7	879.48 ± 9.6	874.64 ± 9.5	796 ± 92	401 ± 45	263 ± 28
w2 = 0.0147	887.75 ± 9.7	880.36 ± 9.6	875.46 ± 9.5	646 ± 74	321 ± 35	210 ± 23
w2 = 0.0317	890.65 ± 9.7	883.04 ± 9.6	878.08 ± 9.5	431 ± 48	211 ± 23	137 ± 14
w2 = 0.081	898.06 ± 9.6	890.2 ± 9.5	884.95 ± 9.4	261 ± 29	125 ± 13	81.6 ± 8.6
w2 = 0.142	–	–	893.78 ± 9.4	–	–	55.6 ± 6
w2 = 0.146	–	900.11 ± 9.5	–	–	79.7 ± 8.6	–
w2 = 0.154	–	–	–	142 ± 15	–	–
w2 = 0.156	909.07 ± 9.6	–	–	142 ± 15	–	–

CC(CC(C)(C)C)CP(=O)([O-])CC(C)CC(C)(C)C.CCCCCCCCCCCCCC[P+](CCCCCC)(CCCCCC)CCCCCC
[1]
Details	mass density [kg/m3]	viscosity [mPa·s]
298 K	883.68 ± 9.7	1023 ± 120
310 K	876.52 ± 9.6	521 ± 59
318 K	871.79 ± 9.5	345 ± 38
